From US9249145B2, “Heterocyclic derivatives of pyrazol-4-yl-pyrrolo[2,3-d]pyrimidines as janus kinase inhibitors” (Incyte Holdings Corporation, priority 2009, dated 2016) come the findings set out here.

Broadly, the IC50 is the concentration that inhibits the measured activity by half.

One test has as its target T1, Jak2 (a.a. 828-1132) (Homo sapiens, UniProt O60674).
T1 construct: Jak2 (a.a. 828-1132); His tag (N); made in house; host or cells: insect cells (baculovirus)
Nature of the test: In vitro JAK kinase assay (HTRF, phosphorylation of biotinylated peptide), JAK2. It counts as biochemical. As to conditions: 1 mM ATP, read-out: JAK2 IC50 (nM) @ 1 mM ATP. In short, it runs like this: (§1)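 His-tagged catalytic domains expressed in baculovirus/insect cells; biotinylated peptide (500 nM) phosphorylation in 50 mM Tris pH 7.8, 100 mM NaCl, 5 mM DTT, 0.01% BSA, 1 h room temperature. ATP at Km (JAK1 90 μM, JAK2 30 μM) or 1 mM. EDTA stop, Eu-Py20/SA-APC HTRF read; IC50.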
(Time-resolved FRET reads energy transfer from a long-lived donor to a nearby acceptor.)

The target in test [1] is T2, human JAK1 (a.a. 837-1142) (Homo sapiens, UniProt P23458).
T2 construct: The catalytic domains of human JAK1 (a.a. 837-1142); His tag (N); made in house; host or cells: insect cells (baculovirus)
T2 sequence (P23458 849-1154): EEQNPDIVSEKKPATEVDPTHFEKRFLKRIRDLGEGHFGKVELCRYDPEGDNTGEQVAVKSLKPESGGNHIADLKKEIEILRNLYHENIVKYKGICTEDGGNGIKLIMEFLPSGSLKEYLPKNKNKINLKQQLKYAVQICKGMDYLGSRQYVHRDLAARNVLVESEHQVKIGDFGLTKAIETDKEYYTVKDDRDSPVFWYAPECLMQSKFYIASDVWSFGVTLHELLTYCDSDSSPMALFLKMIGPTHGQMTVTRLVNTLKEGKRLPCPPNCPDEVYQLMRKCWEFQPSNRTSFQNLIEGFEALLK
The test is described as follows: In vitro JAK kinase assay (HTRF, phosphorylation of biotinylated peptide), JAK1. In kind it is biochemical. As to conditions: 1 mM ATP, read-out: JAK1 IC50 (nM) @ 1 mM ATP. In short, it runs like this:
as §1

Structures are written as SMILES. Where two headings read alike, the source gives them in different places.

T1 sequence (O60674 828-1132): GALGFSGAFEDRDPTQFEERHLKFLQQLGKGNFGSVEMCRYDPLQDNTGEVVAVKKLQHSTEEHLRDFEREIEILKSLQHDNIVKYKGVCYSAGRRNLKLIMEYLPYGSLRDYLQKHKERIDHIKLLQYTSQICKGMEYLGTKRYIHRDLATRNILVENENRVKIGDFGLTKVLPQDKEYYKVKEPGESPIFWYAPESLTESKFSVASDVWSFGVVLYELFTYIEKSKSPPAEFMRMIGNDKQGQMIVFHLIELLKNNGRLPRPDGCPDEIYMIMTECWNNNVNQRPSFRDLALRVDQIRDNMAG

For `N#CCC(CN1CCN(C(=O)c2ccc(C#N)cc2)CC1)n1ccc(-c2ncnc3[nH]ccc23)c1` (centres unmarked) [Example 88, 4-(4-(2-(3-(7H-pyrrolo[2,3-d]pyrimidin-4-yl)-1H-pyrrol-1-yl)-3-cyanopropyl)piperazine-1-carbonyl)benzonitrile], the IC50 at Jak2 (a.a. 828-1132) (Examples 12-91) is above 100 nM; in test [1] (Examples 12-91) it was 10 to 50 nM.

Consider `N#CCC(CN1CCN(C(=O)c2ncc(C(F)(F)F)cc2F)CC1)n1ccc(-c2ncnc3[nH]ccc23)c1` (centres unmarked) [Example 89, 3-(3-(7H-pyrrolo[2,3-d]pyrimidin-4-yl)-1H-pyrrol-1-yl)-4-(4-(3-fluoro-5-(trifluoromethyl)picolinoyl)piperazin-1-yl)butanenitrile], for which the IC50 at Jak2 (a.a. 828-1132) (Examples 12-91) was above 100 nM; in test [1] (Examples 12-91), 10 to 50 nM.

In the case of `N#CCC(CN1CCN(C(=O)c2ccc(F)cc2F)CC1)n1ccc(-c2ncnc3[nH]ccc23)c1` (centres unmarked) [Example 90, 3-(3-(7H-pyrrolo[2,3-d]pyrimidin-4-yl)-1H-pyrrol-1-yl)-4-(4-(2,4-difluorobenzoyl)piperazin-1-yl)butanenitrile], the IC50 (at Jak2 (a.a. 828-1132) (Examples 12-91); in test [1] (Examples 12-91)) was below 10 nM each time.

Consider `N#CCC(CN1CCN(C(=O)c2ccc(C(F)F)cc2F)CC1)n1ccc(-c2ncnc3[nH]ccc23)c1` (centres unmarked) [Example 91, 3-(3-(7H-pyrrolo[2,3-d]pyrimidin-4-yl)-1H-pyrrol-1-yl)-4-(4-(4-(difluoromethyl)-2-fluorobenzoyl)piperazin-1-yl)butanenitrile], for which the IC50 is 10 to 50 nM at Jak2 (a.a. 828-1132) (Examples 12-91) and below 10 nM in test [1] (Examples 12-91).

Take `Cc1cc(S(=O)(=O)N2CCN(CC(C)n3cc(-c4ncnc5[nH]ccc45)cn3)CC2)c(C(F)(F)F)o1` (centres unmarked) [Example 92, 4-{1-[1-methyl-2-(4-{[5-methyl-2-(trifluoromethyl)-3-furyl]sulfonyl}piperazin-1-yl)ethyl]-1H-pyrazol-4-yl}-7H-pyrrolo[2,3-d]pyrimidine]: the values for the IC50 (at Jak2 (a.a. 828-1132) (Examples 92-162); in test [1] (Examples 92-162)) were above 100 nM and 20 to 50 nM, respectively.

With `CC(CN1CCN(S(=O)(=O)c2ccc(Cl)s2)CC1)n1cc(-c2ncnc3[nH]ccc23)cn1` (centres unmarked) [Example 93, 4-[1-(2-{4-[(5-chloro-2-thienyl)sulfonyl]piperazin-1-yl}-1-methylethyl)-1H-pyrazol-4-yl]-7H-pyrrolo[2,3-d]pyrimidine], the IC50 at Jak2 (a.a. 828-1132) (Examples 92-162) was above 100 nM; in test [1] (Examples 92-162), 20 to 50 nM.

Turning to `CC(CN1CCN(S(=O)(=O)c2ccccc2C#N)CC1)n1cc(-c2ncnc3[nH]ccc23)cn1` (centres unmarked) [Example 94, 2-[(4-{2-[4-(7H-pyrrolo[2,3-d]pyrimidin-4-yl)-1H-pyrazol-1-yl]propyl}piperazin-1-yl)sulfonyl]benzonitrile], the IC50 is above 100 nM on Jak2 (a.a. 828-1132) (Examples 92-162) and 20 to 50 nM in test [1] (Examples 92-162).

With `CC(CN1CCN(C(=O)c2ccc(F)cc2F)CC1)n1cc(-c2ncnc3[nH]ccc23)cn1` (centres unmarked) [Example 95, 4-(1-{2-[4-(2,4-difluorobenzoyl)piperazin-1-yl]-1-methylethyl}-1H-pyrazol-4-yl)-7H-pyrrolo[2,3-d]pyrimidine bis(trifluoroacetate)], the IC50 is above 100 nM on Jak2 (a.a. 828-1132) (Examples 92-162) and 20 to 50 nM in test [1] (Examples 92-162).

In the case of `CC(CN1CCN(S(=O)(=O)c2cccc(F)c2)CC1)n1cc(-c2ncnc3[nH]ccc23)cn1` (centres unmarked) [Example 96, 4-[1-(2-{4-[(3-fluorophenyl)sulfonyl]piperazin-1-yl}-1-methylethyl)-1H-pyrazol-4-yl]-7H-pyrrolo[2,3-d]pyrimidine bis(trifluoroacetate)], the IC50 on Jak2 (a.a. 828-1132) (Examples 92-162) was above 100 nM; in test [1] (Examples 92-162), 20 to 50 nM.

Take `N#CCC(CN1CCCN(C(=O)c2ccc(O)cc2F)CC1)n1cc(-c2ncnc3[nH]ccc23)cn1` (centres unmarked) [Example 97, 4-[4-(2-fluoro-4-hydroxybenzoyl)-1,4-diazepan-1-yl]-3-[4-(7H-pyrrolo[2,3-d]pyrimidin-4-yl)-1H-pyrazol-1-yl]butanenitrile bis(trifluoroacetate)]: the figures for the IC50 (at Jak2 (a.a. 828-1132) (Examples 92-162); in test [1] (Examples 92-162)) were above 100 nM and 20 to 50 nM, respectively.

Take `N#CCC(CN1CCCN(C(=O)c2ccc(F)cc2)CC1)n1cc(-c2ncnc3[nH]ccc23)cn1` (centres unmarked) [Example 98, 4-[4-(4-fluorobenzoyl)-1,4-diazepan-1-yl]-3-[4-(7H-pyrrolo[2,3-d]pyrimidin-4-yl)-1H-pyrazol-1-yl]butanenitrile]: the IC50 is above 100 nM on Jak2 (a.a. 828-1132) (Examples 92-162) and 20 to 50 nM in test [1] (Examples 92-162).

With `N#CCC(CN1CCCN(C(=O)c2ccc(F)cc2F)CC1)n1cc(-c2ncnc3[nH]ccc23)cn1` (centres unmarked) [Example 99, 4-[4-(2,4-difluorobenzoyl)-1,4-diazepan-1-yl]-3-[4-(7H-pyrrolo[2,3-d]pyrimidin-4-yl)-1H-pyrazol-1-yl]butanenitrile], the IC50 is 50 to 100 nM at Jak2 (a.a. 828-1132) (Examples 92-162) and 20 to 50 nM in test [1] (Examples 92-162).

As to `N#CCC(CN1CCCN(C(=O)c2ccc(Cl)cc2F)CC1)n1cc(-c2ncnc3[nH]ccc23)cn1` (centres unmarked) [Example 100, 4-[4-(4-chloro-2-fluorobenzoyl)-1,4-diazepan-1-yl]-3-[4-(7H-pyrrolo[2,3-d]pyrimidin-4-yl)-1H-pyrazol-1-yl]butanenitrile], the values for the IC50 (on Jak2 (a.a. 828-1132) (Examples 92-162); in test [1] (Examples 92-162)) were 20 to 50 nM and below 20 nM, respectively.

Take `N#CCC(CN1CCCN(C(=O)c2ccccc2F)CC1)n1cc(-c2ncnc3[nH]ccc23)cn1` (centres unmarked) [Example 101, 4-[4-(2-fluorobenzoyl)-1,4-diazepan-1-yl]-3-[4-(7H-pyrrolo[2,3-d]pyrimidin-4-yl)-1H-pyrazol-1-yl]butanenitrile]: the IC50 is above 100 nM at Jak2 (a.a. 828-1132) (Examples 92-162) and 20 to 50 nM in test [1] (Examples 92-162).

Regarding `N#CCC(CN1CCCN(S(=O)(=O)c2ccccc2C#N)CC1)n1cc(-c2ncnc3[nH]ccc23)cn1` (centres unmarked) [Example 102, 2-[(4-{3-cyano-2-[4-(7H-pyrrolo[2,3-d]pyrimidin-4-yl)-1H-pyrazol-1-yl]propyl}-1,4-diazepan-1-yl)sulfonyl]benzonitrile], the IC50 lay in the range of 50 to 100 nM at Jak2 (a.a. 828-1132) (Examples 92-162) and 20 to 50 nM in test [1] (Examples 92-162).

As for `N#CCC(CN1CCCN(C(=O)c2ccc(Cl)cc2Cl)CC1)n1cc(-c2ncnc3[nH]ccc23)cn1` (centres unmarked) [Example 103, 4-[4-(2,4-dichlorobenzoyl)-1,4-diazepan-1-yl]-3-[4-(7H-pyrrolo[2,3-d]pyrimidin-4-yl)-1H-pyrazol-1-yl]butanenitrile], the IC50 at Jak2 (a.a. 828-1132) (Examples 92-162) was above 100 nM; in test [1] (Examples 92-162), 20 to 50 nM.

`N#CCC(CN1CCCN(C(=O)c2ccc(N)cc2F)CC1)n1cc(-c2ncnc3[nH]ccc23)cn1` (centres unmarked) [Example 104, 4-[4-(4-amino-2-fluorobenzoyl)-1,4-diazepan-1-yl]-3-[4-(7H-pyrrolo[2,3-d]pyrimidin-4-yl)-1H-pyrazol-1-yl]butanenitrile]: the values for the IC50 (on Jak2 (a.a. 828-1132) (Examples 92-162); in test [1] (Examples 92-162)) were above 100 nM and 20 to 50 nM, respectively.

Consider `Cc1cc(Cl)ccc1C(=O)N1CCCN(CC(CC#N)n2cc(-c3ncnc4[nH]ccc34)cn2)CC1` (centres unmarked) [Example 105, 4-[4-(4-chloro-2-methylbenzoyl)-1,4-diazepan-1-yl]-3-[4-(7H-pyrrolo[2,3-d]pyrimidin-4-yl)-1H-pyrazol-1-yl]butanenitrile], for which the IC50 at Jak2 (a.a. 828-1132) (Examples 92-162) was above 100 nM; in test [1] (Examples 92-162), 20 to 50 nM.

Take `COc1cc(Cl)ccc1C(=O)N1CCCN(CC(CC#N)n2cc(-c3ncnc4[nH]ccc34)cn2)CC1` (centres unmarked) [Example 106, 4-[4-(4-chloro-2-methoxybenzoyl)-1,4-diazepan-1-yl]-3-[4-(7H-pyrrolo[2,3-d]pyrimidin-4-yl)-1H-pyrazol-1-yl]butanenitrile]: the IC50 is 50 to 100 nM on Jak2 (a.a. 828-1132) (Examples 92-162) and below 20 nM in test [1] (Examples 92-162).

As for `N#CCC(CN1CCCN(C(=O)c2ccc(Cl)cc2)CC1)n1cc(-c2ncnc3[nH]ccc23)cn1` (centres unmarked) [Example 107, 4-[4-(4-chlorobenzoyl)-1,4-diazepan-1-yl]-3-[4-(7H-pyrrolo[2,3-d]pyrimidin-4-yl)-1H-pyrazol-1-yl]butanenitrile], the values for the IC50 (at Jak2 (a.a. 828-1132) (Examples 92-162); in test [1] (Examples 92-162)) were above 100 nM and 20 to 50 nM, respectively.

For `Cc1ccccc1S(=O)(=O)N1CCCN(CC(CC#N)n2cc(-c3ncnc4[nH]ccc34)cn2)CC1` (centres unmarked) [Example 108, 4-{4-[(2-methylphenyl)sulfonyl]-1,4-diazepan-1-yl}-3-[4-(7H-pyrrolo[2,3-d]pyrimidin-4-yl)-1H-pyrazol-1-yl]butanenitrile], the half-maximal inhibitory concentration (IC50) on Jak2 (a.a. 828-1132) (Examples 92-162) was 50 to 100 nM; in test [1] (Examples 92-162) it was below 20 nM.

For the molecule `N#CCC(CN1CCCN(S(=O)(=O)c2ccccc2C(F)(F)F)CC1)n1cc(-c2ncnc3[nH]ccc23)cn1` (centres unmarked) [Example 109, 3-[4-(7H-pyrrolo[2,3-d]pyrimidin-4-yl)-1H-pyrazol-1-yl]-4-(4-{[2-(trifluoromethyl)phenyl]sulfonyl}-1,4-diazepan-1-yl)butanenitrile], the results for the IC50 (at Jak2 (a.a. 828-1132) (Examples 92-162); in test [1] (Examples 92-162)) were above 100 nM and 20 to 50 nM, respectively.

Take `N#CCC(CN1CCCN(S(=O)(=O)c2ccccc2OC(F)(F)F)CC1)n1cc(-c2ncnc3[nH]ccc23)cn1` (centres unmarked) [Example 110, 3-[4-(7H-pyrrolo[2,3-d]pyrimidin-4-yl)-1H-pyrazol-1-yl]-4-(4-{[2-(trifluoromethoxy)phenyl]sulfonyl}-1,4-diazepan-1-yl)butanenitrile]: the IC50 at Jak2 (a.a. 828-1132) (Examples 92-162) is above 100 nM; in test [1] (Examples 92-162), 20 to 50 nM.

Turning to `COc1ccc(OC)c(S(=O)(=O)N2CCCN(CC(CC#N)n3cc(-c4ncnc5[nH]ccc45)cn3)CC2)c1` (centres unmarked) [Example 111, 4-{4-[(2,5-dimethoxyphenyl)sulfonyl]-1,4-diazepan-1-yl}-3-[4-(7H-pyrrolo[2,3-d]pyrimidin-4-yl)-1H-pyrazol-1-yl]butanenitrile], the IC50 lay in the range of 50 to 100 nM on Jak2 (a.a. 828-1132) (Examples 92-162) and 20 to 50 nM in test [1] (Examples 92-162).

For `COc1ccc(Cl)cc1S(=O)(=O)N1CCCN(CC(CC#N)n2cc(-c3ncnc4[nH]ccc34)cn2)CC1` (centres unmarked) [Example 112], the values for the IC50 (on Jak2 (a.a. 828-1132) (Examples 92-162); in test [1] (Examples 92-162)) were 20 to 50 nM and below 20 nM, respectively.
